Key:
Format in all cases: in vivo
[1] = system: junglerice (Echinochloa colona); assay: Test E flooded paddy water application; conditions: Flood, 21 days, scale 0 to 100 (0 no effect, 100 complete control)
Text: (§1) Three plastic pots (ca. 16-cm diameter) per rate were partially filled with sterilized Tama silt loam soil comprising a 35:50:15 ratio of sand, silt and clay and 2.6% organic matter. Separate plantings for each of the three pots were as follows. Seeds from the U.S. of ducksalad (Heteranthera limosa), smallflower umbrella sedge (Cyperus difformis) and purple redstem (Ammannia coccinea), were planted into one 16-cm pot for each rate. Seeds from the U.S. of rice flatsedge (Cyperus iria), bearded (brdd.) sprangletop (Leptochloa fusca ssp. fascicularis), one stand of 9 or 10 water seeded rice seedlings (Oryza sativa cv. ‘Japonica-M202’), and one stand of 6 transplanted rice seedlings (Oryza sativa cv. ‘Japonica-M202’) were planted into one 16-cm pot for each rate. Seeds from the U.S. of barnyardgrass (Echinochloa crus-galli), late watergrass (Echinochloa oryzicola), early watergrass (Echinochloa oryzoides) and junglerice (Echinochloa colona) were planted into one 16-cm pot for each rate. Plantings were sequential so that crop and weed species were at the 2.0 to 2.5-leaf stage at time of treatment.
(§2) Potted plants were grown in a greenhouse with day/night temperature settings of 29.5/26.7° C., and supplemental balanced lighting was provided to maintain a 16-hour photoperiod. Test pots were maintained in the greenhouse until test completion.
(§3) At time of treatment, test pots were flooded to 3 cm above the soil surface, treated by application of test compounds directly to the paddy water, and then maintained at that water depth for the duration of the test. Effects of treatments on rice and weeds were visually evaluated by comparison to untreated controls after 21 days. Plant response ratings, summarized in Table E, are based on a scale of 0 to 100 where 0 is no effect and 100 is complete control. A dash (-) response means no test result.

[2] = system: rice flatsedge (Cyperus iria); assay: Test E flooded paddy water application; conditions: Flood, 21 days, scale 0 to 100 (0 no effect, 100 complete control)
Text: as §1, §2, §3

[3] = system: water seeded rice seedlings (Oryza sativa cv. ‘Japonica-M202’); assay: Test E flooded paddy water application; conditions: Flood, 21 days, scale 0 to 100 (0 no effect, 100 complete control)
Text: as §1, §2, §3

[4] = system: transplanted rice seedlings (Oryza sativa cv. ‘Japonica-M202’); assay: Test E flooded paddy water application; conditions: Flood, 21 days, scale 0 to 100 (0 no effect, 100 complete control)
Text: as §1, §2, §3

[5] = system: smallflower umbrella sedge (Cyperus difformis); assay: Test E flooded paddy water application; conditions: Flood, 21 days, scale 0 to 100 (0 no effect, 100 complete control)
Text: as §1, §2, §3

[6] = system: early watergrass (Echinochloa oryzoides); assay: Test E flooded paddy water application; conditions: Flood, 21 days, scale 0 to 100 (0 no effect, 100 complete control)
Text: as §1, §2, §3

[7] = system: ducksalad (Heteranthera limosa); assay: Test E flooded paddy water application; conditions: Flood, 21 days, scale 0 to 100 (0 no effect, 100 complete control)
Text: as §1, §2, §3

[8] = system: bearded (brdd.) sprangletop (Leptochloa fusca ssp. fascicularis); assay: Test E flooded paddy water application; conditions: Flood, 21 days, scale 0 to 100 (0 no effect, 100 complete control)
Text: as §1, §2, §3

[9] = system: purple redstem (Ammannia coccinea); assay: Test E flooded paddy water application; conditions: Flood, 21 days, scale 0 to 100 (0 no effect, 100 complete control)
Text: as §1, §2, §3

[10] = system: late watergrass (Echinochloa oryzicola); assay: Test E flooded paddy water application; conditions: Flood, 21 days, scale 0 to 100 (0 no effect, 100 complete control)
Text: as §1, §2, §3

[11] = system: redroot pigweed (Amaranthus retroflexus); assay: Test A pre/postemergence
Procedure, shortened: (§4)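 Soil: loam blended with sand. Formulation: non-phytotoxic solvent mixture with surfactant. Timing: preemergence soil spray plus concurrent postemergence spray (plants 2–10 cm, 1–2 leaves). Readout: visual injury versus untreated controls at ~10 days, 0–100.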

[12] = system: giant foxtail (Setaria faberi); assay: Test A pre/postemergence
Procedure, shortened: as §4

[13] = system: crabgrass (Digitaria sanguinalis); assay: Test A pre/postemergence
Procedure, shortened: as §4

[14] = system: morningglory (Ipomoea spp.); assay: Test A pre/postemergence
Procedure, shortened: as §4

[15] = system: barnyardgrass (Echinochloa crus-galli); assay: Test A pre/postemergence
Procedure, shortened: as §4

[16] = system: velvetleaf (Abutilon theophrasti); assay: Test A pre/postemergence
Procedure, shortened: as §4

[17] = Postemergence, 125 g ai/ha, 0 to 100 scale (0 no effect, 100 complete control)
[18] = Postemergence, 500 g ai/ha, 0 to 100 scale (0 no effect, 100 complete control)
[19] = Preemergence, 125 g ai/ha, 0 to 100 scale where 0 is no effect and 100 is complete control, approximately ten days
[20] = Preemergence, 500 g ai/ha, 0 to 100 scale where 0 is no effect and 100 is complete control, approximately ten days

`CCOC(=O)c1nc(-c2ccc(F)cc2)nc(N)c1Br` [Compound 63] was tested, and the “Junglerice plant response rating” value ([1]; 32 g ai/ha) was 0, the “Junglerice plant response rating” value ([1]; 64 g ai/ha) was 0 and the “Junglerice plant response rating” value ([1]; 125 g ai/ha) was 0. The “Junglerice plant response rating” value ([1]; 250 g ai/ha) was 30, the “Plant response rating, Junglerice” value ([1]; 16 g ai/ha) was 0 and the “Flatsedge, Rice plant response rating” value ([2]; 32 g ai/ha) was 75. For the same compound, the “Flatsedge, Rice plant response rating” value ([2]; 64 g ai/ha) was 75, the “Flatsedge, Rice plant response rating” value ([2]; 125 g ai/ha) was 85 and the “Flatsedge, Rice plant response rating” value ([2]; 250 g ai/ha) was 85. For the same compound, the “Plant response rating, Flatsedge, Rice” value ([2]; 16 g ai/ha) was 60, the “Rice, Water Seeded plant response rating” value ([3]; 32 g ai/ha) was 0 and the “Rice, Water Seeded plant response rating” value ([3]; 64 g ai/ha) was 0. The “Rice, Water Seeded plant response rating” value ([3]; 125 g ai/ha) was 20, the “Rice, Water Seeded plant response rating” value ([3]; 250 g ai/ha) was 30 and the “Plant response rating, Rice, Water Seeded” value ([3]; 16 g ai/ha) was 0. The “Rice, Transplanted plant response rating” value ([4]; 32 g ai/ha) was 0, the “Rice, Transplanted plant response rating” value ([4]; 64 g ai/ha) was 0 and the “Rice, Transplanted plant response rating” value ([4]; 125 g ai/ha) was 0. The “Rice, Transplanted plant response rating” value ([4]; 250 g ai/ha) was 0, the “Plant response rating, Rice, Transplanted” value ([4]; 16 g ai/ha) was 0 and the “Sedge, Umbrella plant response rating” value ([5]; 32 g ai/ha) was 75. The “Sedge, Umbrella plant response rating” value ([5]; 64 g ai/ha) was 75, the “Sedge, Umbrella plant response rating” value ([5]; 125 g ai/ha) was 75 and the “Sedge, Umbrella plant response rating” value ([5]; 250 g ai/ha) was 80. The “Plant response rating, Sedge, Umbrella” value ([5]; 16 g ai/ha) was 70, the “Watergrass, Early plant response rating” value ([6]; 32 g ai/ha) was 0 and the “Watergrass, Early plant response rating” value ([6]; 64 g ai/ha) was 0. The “Watergrass, Early plant response rating” value ([6]; 125 g ai/ha) was 0, the “Watergrass, Early plant response rating” value ([6]; 250 g ai/ha) was 0 and the “Plant response rating, Watergrass, Early” value ([6]; 16 g ai/ha) was 0. The “Ducksalad plant response rating” value ([7]; 32 g ai/ha) was 30, the “Ducksalad plant response rating” value ([7]; 64 g ai/ha) was 65 and the “Ducksalad plant response rating” value ([7]; 125 g ai/ha) was 100. The “Ducksalad plant response rating” value ([7]; 250 g ai/ha) was 100, the “Plant response rating, Ducksalad” value ([7]; 16 g ai/ha) was 30 and the “Sprangletop, Brdd. plant response rating” value ([8]; 32 g ai/ha) was 0. For the same compound, the “Sprangletop, Brdd. plant response rating” value ([8]; 64 g ai/ha) was 40, the “Sprangletop, Brdd. plant response rating” value ([8]; 125 g ai/ha) was 40 and the “Sprangletop, Brdd. plant response rating” value ([8]; 250 g ai/ha) was 65. For the same compound, the “Plant response rating, Sprangletop, Brdd.” value ([8]; 16 g ai/ha) was 0, the “Redstem plant response rating” value ([9]; 32 g ai/ha) was 65 and the “Redstem plant response rating” value ([9]; 64 g ai/ha) was 65. For the same compound, the “Redstem plant response rating” value ([9]; 125 g ai/ha) was 75, the “Redstem plant response rating” value ([9]; 250 g ai/ha) was 75 and the “Plant response rating, Redstem” value ([9]; 16 g ai/ha) was 65. The “Watergrass, Late plant response rating” value ([10]; 32 g ai/ha) was 0, the “Watergrass, Late plant response rating” value ([10]; 64 g ai/ha) was 0 and the “Watergrass, Late plant response rating” value ([10]; 125 g ai/ha) was 0. For the same compound, the “Watergrass, Late plant response rating” value ([10]; 250 g ai/ha) was 0, the “Plant response rating, Watergrass, Late” value ([10]; 16 g ai/ha) was 0 and the “Plant response rating, Pigweed” value [11, 17] was 40. For the same compound, the “Plant response rating, Pigweed” value [11, 18] was 65, the “Plant response rating, Pigweed” value [11, 19] was 0 and the “Plant response rating, Pigweed” value [11, 20] was 80. For the same compound, the “Plant response rating, Foxtail, Giant” value [12, 17] was 0, the “Plant response rating, Foxtail, Giant” value [12, 18] was 0 and the “Plant response rating, Foxtail, Giant” value [12, 19] was 0. For the same compound, the “Plant response rating, Foxtail, Giant” value [12, 20] was 35, the “Plant response rating, Crabgrass” value [13, 17] was 0 and the “Plant response rating, Crabgrass” value [13, 18] was 0. For the same compound, the “Plant response rating, Crabgrass” value [13, 19] was 0, the “Plant response rating, Crabgrass” value [13, 20] was 75 and the “Plant response rating, Morningglory” value [14, 17] was 20. The “Plant response rating, Morningglory” value [14, 18] was 25, the “Plant response rating, Morningglory” value [14, 19] was 0 and the “Plant response rating, Morningglory” value [14, 20] was 0. The “Plant response rating, Barnyardgrass” value [15, 17] was 0, the “Plant response rating, Barnyardgrass” value [15, 18] was 0 and the “Plant response rating, Barnyardgrass” value [15, 19] was 0. The “Plant response rating, Barnyardgrass” value [15, 20] was 40, the “Plant response rating, Velvetleaf” value [16, 17] was 55 and the “Plant response rating, Velvetleaf” value [16, 18] was 70. For the same compound, the “Plant response rating, Velvetleaf” value [16, 19] was 0 and the “Plant response rating, Velvetleaf” value [16, 20] was 15.

From US8802597B2, “Herbicidal pyrimidines” (E I du Pont de Nemours and Company, priority 2003, dated 2014)
